# In ChEMBL document CHEMBL1201862, “PubChem BioAssay data set” (2004):
#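 Compound exposure: 48 hours, 5 concentrations, 96-well plates. Here, GI50 denotes the concentration required for 50% inhibition of growth.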 Calls of active or inactive are those of the source. Rule as the data show it: active = GI50 up to about 1.1 µM and inactive = higher.
# Key:
# Assay in all cases: growth of human tumour cells (NCI), 48 h
# 786-0 = tested on: 786-0
# A498 = tested on: A498
# A549 = tested on: A549
# ACHN = tested on: ACHN
# CCRF-CEM = tested on: CCRF-CEM
# COLO 205 = tested on: COLO 205
# DLD-1 = tested on: DLD-1
# DMS-273 = tested on: DMS-273
# EKVX = tested on: EKVX
# HCC 2998 = tested on: HCC 2998
# HCT-116 = tested on: HCT-116
# HL-60 = tested on: HL-60
# HOP-18 = tested on: HOP-18
# HOP-92 = tested on: HOP-92
# HT-29 = tested on: HT-29
# IGROV-1 = tested on: IGROV-1
# K562 = tested on: K562
# KM-20L2 = tested on: KM-20L2
# KM12 = tested on: KM12
# LOX IMVI = tested on: LOX IMVI
# LXFL 529 = tested on: LXFL 529
# M14 = tested on: M14
# M19-MEL = tested on: M19-MEL
# MOLT-4 = tested on: MOLT-4
# NCI-H23 = tested on: NCI-H23
# NCI-H460 = tested on: NCI-H460
# NCI-H522 = tested on: NCI-H522
# OVCAR-3 = tested on: OVCAR-3
# OVCAR-4 = tested on: OVCAR-4
# OVCAR-5 = tested on: OVCAR-5
# OVCAR-8 = tested on: OVCAR-8
# RPMI-8226 = tested on: RPMI-8226
# RXF 393 = tested on: RXF 393
# SF-268 = tested on: SF-268
# SF-295 = tested on: SF-295
# SF-539 = tested on: SF-539
# SK-MEL-28 = tested on: SK-MEL-28
# SK-MEL-2 = tested on: SK-MEL-2
# SK-MEL-5 = tested on: SK-MEL-5
# SK-OV-3 = tested on: SK-OV-3
# SN12C = tested on: SN12C
# SNB-19 = tested on: SNB-19
# SNB-75 = tested on: SNB-75
# SNB-78 = tested on: SNB-78
# SR = tested on: SR
# SW-620 = tested on: SW-620
# TK-10 = tested on: TK-10
# U-251 = tested on: U-251
# UACC-257 = tested on: UACC-257
# UACC-62 = tested on: UACC-62
# UO-31 = tested on: UO-31
# XF498 = tested on: XF498
# DMS-114 = tested on: DMS-114
# HCT-15 = tested on: HCT-15
# HOP-62 = tested on: HOP-62
# MCF7 = tested on: MCF7
# Malme-3M = tested on: Malme-3M
# NCI-H226 = tested on: NCI-H226
# NCI/ADR-RES = tested on: NCI/ADR-RES
structure (smiles),measurement,setting,value
CN1Cc2cc3c(cc2-c2ccccc21)OCO3,GI50,786-0,> 100 µM (inactive)
same,GI50,A498,> 100 µM (inactive)
same,GI50,A549,> 100 µM (inactive)
same,GI50,ACHN,> 100 µM (inactive)
same,GI50,CCRF-CEM,> 100 µM (inactive)
same,GI50,COLO 205,> 100 µM (inactive)
same,GI50,DLD-1,> 100 µM (inactive)
same,GI50,DMS-273,> 100 µM (inactive)
same,GI50,EKVX,> 100 µM (inactive)
same,GI50,HCC 2998,> 100 µM (inactive)
same,GI50,HCT-116,> 100 µM (inactive)
same,GI50,HL-60,> 100 µM (inactive)
same,GI50,HOP-18,> 100 µM (inactive)
same,GI50,HOP-92,> 100 µM (inactive)
same,GI50,HT-29,> 100 µM (inactive)
same,GI50,IGROV-1,> 100 µM (inactive)
same,GI50,K562,> 100 µM (inactive)
same,GI50,KM-20L2,91.6 µM (inactive)
same,GI50,KM12,> 100 µM (inactive)
same,GI50,LOX IMVI,> 100 µM (inactive)
same,GI50,LXFL 529,> 100 µM (inactive)
same,GI50,M14,> 100 µM (inactive)
same,GI50,M19-MEL,> 100 µM (inactive)
same,GI50,MOLT-4,> 100 µM (inactive)
same,GI50,NCI-H23,> 100 µM (inactive)
same,GI50,NCI-H460,> 100 µM (inactive)
same,GI50,NCI-H522,> 100 µM (inactive)
same,GI50,OVCAR-3,> 100 µM (inactive)
same,GI50,OVCAR-4,> 100 µM (inactive)
same,GI50,OVCAR-5,> 100 µM (inactive)
same,GI50,OVCAR-8,> 100 µM (inactive)
same,GI50,RPMI-8226,> 100 µM (inactive)
same,GI50,RXF 393,> 100 µM (inactive)
same,GI50,SF-268,> 100 µM (inactive)
same,GI50,SF-295,> 100 µM (inactive)
same,GI50,SF-539,> 100 µM (inactive)
same,GI50,SK-MEL-28,> 100 µM (inactive)
same,GI50,SK-MEL-2,> 100 µM (inactive)
same,GI50,SK-MEL-5,> 100 µM (inactive)
same,GI50,SK-OV-3,> 10 µM (inactive)
same,GI50,SN12C,> 100 µM (inactive)
same,GI50,SNB-19,> 100 µM (inactive)
same,GI50,SNB-75,> 100 µM (inactive)
same,GI50,SNB-78,> 100 µM (inactive)
same,GI50,SR,> 100 µM (inactive)
same,GI50,SW-620,> 100 µM (inactive)
same,GI50,TK-10,> 100 µM (inactive)
same,GI50,U-251,> 100 µM (inactive)
same,GI50,UACC-257,> 100 µM (inactive)
same,GI50,UACC-62,> 100 µM (inactive)
same,GI50,UO-31,> 100 µM (inactive)
same,GI50,XF498,> 100 µM (inactive)
CC(C)CCCC(C)[C@H]1CCC(C2C[C@@H](O)[C@@H]3CC(O)[C@@H](O)C[C@]3(CO)C2=O)[C@]1(C)CCO (some centres undefined),GI50,A498,25.6 µM (inactive)
same,GI50,A549,34 µM (inactive)
same,GI50,CCRF-CEM,17 µM (inactive)
same,GI50,COLO 205,20 µM (inactive)
same,GI50,DLD-1,31.7 µM (inactive)
same,GI50,DMS-114,20.6 µM (inactive)
same,GI50,DMS-273,32.3 µM (inactive)
same,GI50,EKVX,> 57.8 µM (inactive)
same,GI50,HCC 2998,21.2 µM (inactive)
same,GI50,HCT-116,20 µM (inactive)
same,GI50,HCT-15,28.8 µM
same,GI50,HL-60,16.1 µM (inactive)
same,GI50,HOP-18,23.7 µM (inactive)
same,GI50,HOP-62,23.9 µM (inactive)
same,GI50,HT-29,19.5 µM (inactive)
same,GI50,IGROV-1,23.3 µM (inactive)
same,GI50,K562,24.4 µM (inactive)
same,GI50,KM-20L2,20 µM (inactive)
same,GI50,KM12,14.3 µM (inactive)
same,GI50,LOX IMVI,20.9 µM (inactive)
same,GI50,M19-MEL,21 µM (inactive)
same,GI50,MCF7,14.2 µM (inactive)
same,GI50,MOLT-4,0.491 µM (active)
same,GI50,Malme-3M,23.1 µM (inactive)
same,GI50,NCI-H226,30.7 µM (inactive)
same,GI50,NCI-H23,36.1 µM (inactive)
same,GI50,NCI-H460,21.8 µM (inactive)
same,GI50,NCI-H522,26.3 µM (inactive)
same,GI50,NCI/ADR-RES,37.6 µM (inactive)
same,GI50,OVCAR-3,21.4 µM (inactive)
same,GI50,OVCAR-4,30.6 µM (inactive)
same,GI50,OVCAR-5,23.2 µM (inactive)
same,GI50,OVCAR-8,> 50.1 µM (inactive)
same,GI50,RPMI-8226,27.1 µM (inactive)
same,GI50,RXF 393,24.9 µM (inactive)
same,GI50,SF-268,25 µM (inactive)
same,GI50,SF-295,20.4 µM (inactive)
same,GI50,SF-539,20.9 µM (inactive)
same,GI50,SK-MEL-28,21.8 µM (inactive)
same,GI50,SK-MEL-2,22.3 µM (inactive)
same,GI50,SK-MEL-5,14.2 µM (inactive)
same,GI50,SK-OV-3,25.8 µM (inactive)
same,GI50,SN12C,30.2 µM (inactive)
same,GI50,SNB-19,28.4 µM (inactive)
same,GI50,SNB-75,20.4 µM (inactive)
same,GI50,SNB-78,32.7 µM (inactive)
same,GI50,SW-620,23.4 µM (inactive)
same,GI50,U-251,19.4 µM (inactive)
same,GI50,UACC-257,20 µM (inactive)
same,GI50,UACC-62,19.2 µM (inactive)
same,GI50,UO-31,23 µM (inactive)
same,GI50,XF498,> 42.9 µM (inactive)
